Laboratory results from patent publication US20090111697A1, “PROPIONIC ACID AS AN HERBICIDE” (Marrone Organic Innovations, priority 2007, published 2009).

How the values were obtained:
[1] = Solubility of hinokitiol in solvents; format: physicochemical; conditions: ambient conditions
From the text: The solubility of hinokitiol in proprionic acid was 60% w/w or 3 parts hinokitiol to 2 parts propionic acid by weight, under ambient conditions. Under the correct conditions the solubility of hinokitiol in propionic acid would exceed 3 parts hinokitiol to 2 parts propionic acid, by weight. Under ambient conditions, the maximum solubility of hinokitiol in ethanol is 50% w/w or 1 part hinokitiol to 1 part ethanol by weight.

[2] = tested on: Lactuca sativa (lettuce) seeds; experiment: Pre-emergence pot test, propionic acid in corn gluten meal granules, lettuce; format: in vivo; conditions: one week
Experimental: (§1) To further test the inhibitory effect of propionic acid on germinating seeds, pots with 6-cm diameter were filled with 60 mL of silty clay loam soil passed through a 2-mm sieve, and five (5) seeds of either Lactuca sativa (lettuce, representing a broadleaf plant) or Poa annua (annual bluegrass, representing a grass weed) were planted on the top. A solid form of the composition containing corn gluten meal granules (1-2 mm diameter) soaked in 0%, 10%, 15% or 20% propionic acid solution and dried were placed on the top of the soil at rates 0.1, 0.25, and 0.5 g/pot. The pots were kept at optimum water content under growth lights with a 12-h light/dark period at room temperature, and the number of germinated seeds was counted after one week. The results were reported as a percent of weed seeds germinated relative to the control treatment with no corn gluten meal added.

[3] = tested on: Poa annua (annual bluegrass); experiment: Post-emergence spray test on annual bluegrass, 0.5-20%; format: in vivo; conditions: 2 mL spray, four days after treatment
Experimental: Pots with 6-cm diameter were filled with potting mix, and about thirty (30) seeds of Poa annua (annual bluegrass, representing a grass weed) were planted on the top. The seeds were germinated and the plants grown at optimum water content under growth lights with a 12-h light/dark period at room temperature until they were about 3 inches tall. To test the post-emergence effect of propionic acid, the plants were sprayed with 2 mL of water solutions containing increasing concentrations of propionic acid. The following concentrations (v/v %) were used: 0% (control), 0.5% 2.5%, 5%, 10%, and 20%. the plants were observed four days after the treatment.

[4] = tested on: Poa annua; experiment: Post-emergence minimum concentration study in peat pots, 2-10%; format: in vivo; conditions: Poa annua in small peat pots, sprayed
From the text: To further test the minimum concentration of propionic acid required to control Poa annua (as an example of a grass weed) another study was set up in small peat pots using concentrations 0% (control), 2%, 4%, 6%, 8% and 10% of propionic acid. According to the results, a concentration of 8-10% is needed for good control.

[5] = tested on: Poa annua (annual bluegrass) seeds; experiment: Pre-emergence pot test, propionic acid in corn gluten meal granules, annual bluegrass; format: in vivo; conditions: one week
Experimental: as §1

[6] = tested on: Seedlings of Lactuca sativa (lettuce); experiment: High-throughput 96-well post-emergence assay on lettuce seedlings; format: in vivo
Experimental: A high-throughput 96-well assay was used to test the efficacy of propionic acid as a post-emergence, non-selective herbicide. Seedlings of Lactuca sativa (lettuce) were grown in water agar in 96-well plates under continuous light. Propionic acid was added on the seedlings at a 2×-dilution series from 20% to 0%, and the minimum concentration needed for killing the seedling was recorded the next day. According to the results, propionic acid at a concentration of 0.156% was able to kill the lettuce seedling, whereas propionic acid at a concentration of 0.08% was not harmful for the plant.

[7] = tested on: Lactuca sativa (lettuce) seed; experiment: Germination of lettuce seeds in 96-well plate, dilution series; format: in vivo; conditions: 11 days; for germination: 75 ul per well
Experimental: The phytotoxic effects of propionic and formic acids were tested on germinating dicot seeds. A single seed of Lactuca sativa (lettuce) was placed in each well of a 96-well plate followed by a 75-ul aliquot of each solution in a stepwise (1:2) dilution series with DI water from 5% to 0%. DI water was used as a control. The plate was sealed with a plastic cover, and placed under greenhouse lights (12 hr light/dark cycle) for 11 days after which the germination at each concentration was recorded. See the results below.

[8] = granules soaked in 10% propionic acid, 0.1 g/pot
[9] = granules soaked in 10% propionic acid, 0.25 g/pot
[10] = granules soaked in 10% propionic acid, 0.5 g/pot
[11] = granules soaked in 15% propionic acid, 0.1 g/pot
[12] = granules soaked in 15% propionic acid, 0.25 g/pot
[13] = granules soaked in 15% propionic acid, 0.5 g/pot
[14] = granules soaked in 20% propionic acid, 0.1 g/pot
[15] = granules soaked in 20% propionic acid, 0.25 g/pot
[16] = granules soaked in 20% propionic acid, 0.5 g/pot

## CC(C)c1cccc(=O)c(O)c1 [hinokitiol]
[1]
  maximum solubility in ethanol: 50 % w/w
  solubility in propionic acid: 60 % w/w

## CCC(=O)O [Propionic acid]
[2]; [8]
  germination rate (%) relative to untreated control: 50%
[2]; [9]
  germination rate (%) relative to untreated control: 75%
[2]; [10]
  germination rate (%) relative to untreated control: 42%
[2]; [11]
  germination rate (%) relative to untreated control: 83%
[2]; [12]
  germination rate (%) relative to untreated control: 25%
[2]; [13]
  germination rate (%) relative to untreated control: 42%
[2]; [14]
  germination rate (%) relative to untreated control: 42%
[2]; [15]
  germination rate (%) relative to untreated control: 67%
[2]; [16]
  germination rate (%) relative to untreated control: 33%
[3]; 0.5% (v/v) in water
  herbicidal effect, visual observations: no herbicidal effect
[3]; 10% (v/v) in water
  herbicidal effect, visual observations: symptoms of wilting, scorching and eventually, death
[3]; 20% (v/v) in water
  herbicidal effect, visual observations: symptoms of wilting, scorching and eventually, death
[4]
  concentration needed for good control: 8-10%
[5]; [8]
  germination rate (%) relative to untreated control: 37%
[5]; [9]
  germination rate (%) relative to untreated control: 44%
[5]; [10]
  germination rate (%) relative to untreated control: 22%
[5]; [11]
  germination rate (%) relative to untreated control: 44%
[5]; [12]
  germination rate (%) relative to untreated control: 52%
[5]; [13]
  germination rate (%) relative to untreated control: 30%
[5]; [14]
  germination rate (%) relative to untreated control: 44%
[5]; [15]
  germination rate (%) relative to untreated control: 37%
[5]; [16]
  germination rate (%) relative to untreated control: 96%
[6]; concentration of 0.08%, next day
  effect on the seedling: not harmful
[6]; lettuce seedlings, recorded the next day
  minimum concentration needed for killing the seedling: 0.156%
[7]; 0.005% solution
  germination: +
[7]; 0.01% solution
  germination: +
[7]; 0.02% solution
  germination: + and −
[7]; 0.05% solution
  germination: − and +
[7]; 0.09% solution
  germination: −
[7]; 0.19% solution
  germination: −
[7]; 0.36% solution
  germination: −
[7]; 0.75% solution
  germination: −
[7]; 1.25% solution
  germination: −
[7]; 2.50% solution
  germination: −
[7]; 5.00% solution
  germination: −
[7]; lettuce seed
  threshold value for complete inhibition of seed germination: 0.09%

## O=CO [Formic Acid, reference compound]
[7]; 0.005% solution
  germination: +
[7]; 0.01% solution
  germination: + and −
[7]; 0.02% solution
  germination: + and −
[7]; 0.05% solution
  germination: − and +
[7]; 0.09% solution
  germination: −
[7]; 0.19% solution
  germination: −
[7]; 0.36% solution
  germination: −
[7]; 0.75% solution
  germination: −
[7]; 1.25% solution
  germination: −
[7]; 2.50% solution
  germination: −
[7]; 5.00% solution
  germination: −
